# Laboratory results taken from article PMC7316778 (Nature Communications, 2020).
# “And” between values parts separate entries of the source, which are not always exact repeats. Identical values can stand only once. Like-named read-outs stand apart in the source and are kept apart here.
# Assays:
# Assay in all cases: SelectScreen kinase assay
# ADRBK2 (GRK3) = molecular target: T1, ADRBK2 (GRK3) (Homo sapiens, UniProt P35626)
# T1 sequence (P35626 1-688): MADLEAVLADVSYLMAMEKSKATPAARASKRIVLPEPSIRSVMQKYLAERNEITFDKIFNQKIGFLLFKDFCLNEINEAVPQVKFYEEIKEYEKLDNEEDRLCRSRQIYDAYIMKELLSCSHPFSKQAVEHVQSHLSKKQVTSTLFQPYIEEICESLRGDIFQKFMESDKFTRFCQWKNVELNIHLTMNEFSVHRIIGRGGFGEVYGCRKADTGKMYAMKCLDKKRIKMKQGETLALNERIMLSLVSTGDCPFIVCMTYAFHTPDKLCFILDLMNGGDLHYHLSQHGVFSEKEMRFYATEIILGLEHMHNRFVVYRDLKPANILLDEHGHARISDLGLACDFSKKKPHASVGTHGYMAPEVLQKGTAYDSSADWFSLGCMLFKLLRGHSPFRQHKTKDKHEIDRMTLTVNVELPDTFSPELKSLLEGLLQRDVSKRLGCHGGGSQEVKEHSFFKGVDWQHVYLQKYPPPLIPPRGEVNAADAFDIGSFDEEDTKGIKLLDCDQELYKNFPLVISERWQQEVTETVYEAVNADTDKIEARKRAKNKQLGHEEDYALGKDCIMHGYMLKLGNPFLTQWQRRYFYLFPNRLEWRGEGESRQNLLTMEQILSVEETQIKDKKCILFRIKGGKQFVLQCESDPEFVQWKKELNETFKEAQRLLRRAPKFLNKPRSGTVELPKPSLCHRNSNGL
# Description: (§1) Selectivity profiling assays were performed by the Invitrogen SelectScreen™ Services. […] The concentration of ATP was selected to be equal to the KM, unless indicated otherwise.
# EIF2AK2 (PKR) = EIF2AK2 (PKR) (Homo sapiens, UniProt P19525)
# Description: as §1
# GSG2 (Haspin) = GSG2 (Haspin) (Homo sapiens, UniProt Q8TF76)
# Description: as §1
# MAP4K3 (GLK) = molecular target: T2, MAP4K3 (GLK) (Homo sapiens, UniProt Q8IVH8)
# T2 sequence (Q8IVH8 1-894): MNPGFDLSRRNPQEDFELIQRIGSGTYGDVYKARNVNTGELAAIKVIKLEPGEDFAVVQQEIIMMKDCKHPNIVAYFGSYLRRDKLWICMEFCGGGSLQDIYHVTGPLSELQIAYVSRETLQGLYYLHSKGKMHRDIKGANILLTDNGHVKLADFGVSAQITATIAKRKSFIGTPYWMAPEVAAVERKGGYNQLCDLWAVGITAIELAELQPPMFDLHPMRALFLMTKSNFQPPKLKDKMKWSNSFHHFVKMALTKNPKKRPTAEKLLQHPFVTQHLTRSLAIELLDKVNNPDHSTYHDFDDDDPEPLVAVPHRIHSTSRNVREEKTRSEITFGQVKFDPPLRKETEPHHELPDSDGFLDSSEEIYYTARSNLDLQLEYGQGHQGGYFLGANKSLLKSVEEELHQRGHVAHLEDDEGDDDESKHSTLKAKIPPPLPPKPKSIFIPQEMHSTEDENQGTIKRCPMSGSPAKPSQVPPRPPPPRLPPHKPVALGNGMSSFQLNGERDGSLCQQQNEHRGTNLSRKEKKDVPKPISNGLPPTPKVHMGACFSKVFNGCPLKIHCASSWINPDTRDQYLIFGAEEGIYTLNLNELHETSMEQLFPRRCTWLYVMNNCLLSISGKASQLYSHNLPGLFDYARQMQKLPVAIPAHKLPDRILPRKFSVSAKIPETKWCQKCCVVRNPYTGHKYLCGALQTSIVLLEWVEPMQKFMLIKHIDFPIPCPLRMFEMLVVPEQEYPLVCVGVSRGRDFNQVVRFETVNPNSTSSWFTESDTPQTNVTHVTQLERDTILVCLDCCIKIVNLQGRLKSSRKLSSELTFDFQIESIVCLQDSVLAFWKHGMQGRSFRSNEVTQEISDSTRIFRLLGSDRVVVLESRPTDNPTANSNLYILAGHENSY
# Description: as §1
# MAPKAPK5 (PRAK) = molecular target: T3, MAPKAPK5 (PRAK) (Homo sapiens, UniProt Q8IW41)
# T3 sequence (Q8IW41 1-473): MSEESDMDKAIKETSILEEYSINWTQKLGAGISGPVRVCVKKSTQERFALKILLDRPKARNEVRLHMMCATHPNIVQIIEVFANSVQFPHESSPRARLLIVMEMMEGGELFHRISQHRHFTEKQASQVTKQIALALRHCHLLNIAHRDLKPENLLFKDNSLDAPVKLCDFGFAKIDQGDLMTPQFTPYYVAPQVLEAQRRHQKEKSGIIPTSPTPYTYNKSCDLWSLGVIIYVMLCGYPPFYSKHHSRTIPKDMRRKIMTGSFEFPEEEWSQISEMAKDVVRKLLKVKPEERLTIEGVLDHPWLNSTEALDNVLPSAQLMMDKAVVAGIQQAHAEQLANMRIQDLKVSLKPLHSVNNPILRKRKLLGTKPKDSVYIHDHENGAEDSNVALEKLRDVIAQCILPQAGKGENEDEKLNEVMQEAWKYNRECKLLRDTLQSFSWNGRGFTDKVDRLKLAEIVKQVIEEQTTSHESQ
# Description: as §1
# PDGFRB (PDGFR beta) = PDGFRB (PDGFR beta) (Homo sapiens, UniProt P09619)
# Description: as §1
# VRK2 = VRK2 (Homo sapiens, UniProt Q86Y07)
# Description: as §1
# [1] = 1 h, 1 μM WEL028, 1 h preincubation
# Sequence of PDGFRB (PDGFR beta) (P09619 33-1106): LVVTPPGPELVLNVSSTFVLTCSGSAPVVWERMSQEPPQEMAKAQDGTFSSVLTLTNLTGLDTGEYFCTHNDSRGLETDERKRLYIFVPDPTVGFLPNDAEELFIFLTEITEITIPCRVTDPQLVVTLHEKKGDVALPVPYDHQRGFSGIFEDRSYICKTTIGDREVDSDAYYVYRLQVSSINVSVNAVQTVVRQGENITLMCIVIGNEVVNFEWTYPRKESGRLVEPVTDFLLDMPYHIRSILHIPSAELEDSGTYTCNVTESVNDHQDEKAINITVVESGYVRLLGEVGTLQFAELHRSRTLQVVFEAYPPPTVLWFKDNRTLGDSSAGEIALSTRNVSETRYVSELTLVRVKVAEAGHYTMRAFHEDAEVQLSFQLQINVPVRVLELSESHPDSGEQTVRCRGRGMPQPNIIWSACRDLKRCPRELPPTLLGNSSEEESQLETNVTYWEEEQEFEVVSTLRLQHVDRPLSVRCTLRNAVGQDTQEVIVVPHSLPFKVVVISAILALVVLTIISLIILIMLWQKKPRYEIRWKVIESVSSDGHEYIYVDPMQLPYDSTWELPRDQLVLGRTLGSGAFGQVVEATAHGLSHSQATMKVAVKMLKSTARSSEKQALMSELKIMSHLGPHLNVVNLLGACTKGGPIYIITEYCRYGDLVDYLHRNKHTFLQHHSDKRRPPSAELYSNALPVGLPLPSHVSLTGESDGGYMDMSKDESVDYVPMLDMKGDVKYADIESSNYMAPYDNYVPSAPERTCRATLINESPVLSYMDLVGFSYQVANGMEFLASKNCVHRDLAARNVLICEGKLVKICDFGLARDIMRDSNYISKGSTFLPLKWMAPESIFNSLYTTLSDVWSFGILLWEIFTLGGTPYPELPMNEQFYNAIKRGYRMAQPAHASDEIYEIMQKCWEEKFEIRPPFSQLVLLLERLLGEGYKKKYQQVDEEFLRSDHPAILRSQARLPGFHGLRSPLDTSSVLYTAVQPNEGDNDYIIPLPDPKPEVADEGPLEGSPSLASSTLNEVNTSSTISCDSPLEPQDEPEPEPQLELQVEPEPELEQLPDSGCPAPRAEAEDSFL
# Sequence of VRK2 (Q86Y07 whole entry): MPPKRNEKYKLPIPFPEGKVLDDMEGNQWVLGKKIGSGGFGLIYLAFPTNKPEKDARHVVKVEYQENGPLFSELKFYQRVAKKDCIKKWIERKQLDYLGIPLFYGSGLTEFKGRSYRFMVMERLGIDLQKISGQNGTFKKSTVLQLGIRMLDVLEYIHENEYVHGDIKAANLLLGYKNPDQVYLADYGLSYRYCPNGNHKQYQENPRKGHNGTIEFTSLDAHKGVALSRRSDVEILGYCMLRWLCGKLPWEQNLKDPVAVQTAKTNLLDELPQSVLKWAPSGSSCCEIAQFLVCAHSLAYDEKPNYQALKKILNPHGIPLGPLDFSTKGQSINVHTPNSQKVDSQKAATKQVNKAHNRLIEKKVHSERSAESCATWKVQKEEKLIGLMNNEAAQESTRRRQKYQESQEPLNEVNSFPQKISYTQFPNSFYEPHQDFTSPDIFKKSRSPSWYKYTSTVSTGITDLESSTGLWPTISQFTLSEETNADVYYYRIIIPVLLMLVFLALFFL
# Sequence of EIF2AK2 (PKR) (P19525 whole entry): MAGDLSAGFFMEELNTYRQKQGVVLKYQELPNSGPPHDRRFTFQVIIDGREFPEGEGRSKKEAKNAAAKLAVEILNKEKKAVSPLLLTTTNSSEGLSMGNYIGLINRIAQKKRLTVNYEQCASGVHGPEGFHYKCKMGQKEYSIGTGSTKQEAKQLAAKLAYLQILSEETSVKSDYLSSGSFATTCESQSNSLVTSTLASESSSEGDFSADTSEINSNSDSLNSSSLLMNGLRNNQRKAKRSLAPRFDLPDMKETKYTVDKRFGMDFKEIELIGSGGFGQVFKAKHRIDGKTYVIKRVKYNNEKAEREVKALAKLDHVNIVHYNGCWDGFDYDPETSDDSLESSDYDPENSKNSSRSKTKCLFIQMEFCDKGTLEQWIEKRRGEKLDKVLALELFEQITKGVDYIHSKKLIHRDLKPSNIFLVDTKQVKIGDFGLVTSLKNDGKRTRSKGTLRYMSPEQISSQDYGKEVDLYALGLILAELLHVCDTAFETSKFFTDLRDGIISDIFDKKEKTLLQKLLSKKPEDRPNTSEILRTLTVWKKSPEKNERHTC
# Sequence of GSG2 (Haspin) (Q8TF76 whole entry): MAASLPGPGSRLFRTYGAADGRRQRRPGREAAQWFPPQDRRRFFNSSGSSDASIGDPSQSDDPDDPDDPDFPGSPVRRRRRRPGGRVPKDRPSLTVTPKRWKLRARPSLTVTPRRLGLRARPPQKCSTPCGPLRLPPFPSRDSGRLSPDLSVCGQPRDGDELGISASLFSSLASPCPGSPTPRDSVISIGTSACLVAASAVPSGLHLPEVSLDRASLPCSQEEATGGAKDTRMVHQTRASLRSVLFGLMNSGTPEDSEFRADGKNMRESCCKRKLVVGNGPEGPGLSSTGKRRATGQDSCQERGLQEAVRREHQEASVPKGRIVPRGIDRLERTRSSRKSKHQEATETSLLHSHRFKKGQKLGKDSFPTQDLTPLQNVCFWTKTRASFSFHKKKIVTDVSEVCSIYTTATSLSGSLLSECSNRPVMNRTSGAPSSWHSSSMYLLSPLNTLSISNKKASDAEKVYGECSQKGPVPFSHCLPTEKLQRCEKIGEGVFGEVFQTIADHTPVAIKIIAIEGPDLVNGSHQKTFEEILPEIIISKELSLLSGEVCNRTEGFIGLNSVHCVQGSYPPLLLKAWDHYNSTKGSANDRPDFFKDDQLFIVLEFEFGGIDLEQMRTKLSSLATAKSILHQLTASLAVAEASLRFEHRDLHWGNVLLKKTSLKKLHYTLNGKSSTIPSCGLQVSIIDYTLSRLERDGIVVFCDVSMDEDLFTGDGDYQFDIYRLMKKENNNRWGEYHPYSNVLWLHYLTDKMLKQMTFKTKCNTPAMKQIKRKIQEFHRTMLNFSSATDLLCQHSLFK
structure (smiles),measurement,setting,value
C#CCOc1ccc(Nc2ncc(Cl)c(Nc3ccccc3NC(=O)C=C)n2)c(OC)c1 [Compound 6],inhibition at 1 µM,ADRBK2 (GRK3); [1],7%
same,Inhibition at 1 µM (%),"ADRBK2 (GRK3); ADRBK2 (GRK3), 1 µM, ZLYTE, ATP Km app, listed as WEL028, 1 µM",8%
same,inhibition at 1 µM,"ADRBK2 (GRK3); read-out: Inhibition at 1 µM (%), ADRBK2 (GRK3), 1 µM, ZLYTE, ATP Km app",5%
same,Inhibition (%),"EIF2AK2 (PKR); 1 μM WEL028, 1 h preincubation",4%
same,Inhibition at 1 µM (%),"EIF2AK2 (PKR); EIF2AK2 (PKR), 1 µM, LanthaScreen Binding, listed as WEL028, 1 µM",6% and 1%
same,inhibition at 1 µM,GSG2 (Haspin); [1],6%
same,Inhibition at 1 µM (%),"GSG2 (Haspin); GSG2 (Haspin), 1 µM, Adapta, ATP Km app",20%
same,Inhibition (%),"MAP4K3 (GLK); 1 μM WEL028, 1 h preincubation",3%
same,Inhibition at 1 µM (%),"MAP4K3 (GLK); MAP4K3 (GLK), 1 µM, LanthaScreen Binding, listed as WEL028, 1 µM",2%
same,inhibition at 1 µM,"MAP4K3 (GLK); read-out: Inhibition at 1 µM (%), MAP4K3 (GLK), 1 µM, LanthaScreen Binding",4%
same,IC50,MAPKAPK5 (PRAK),501 nM
same,inhibition at 1 µM,MAPKAPK5 (PRAK); [1],66%
same,inhibition at 10 µM,"MAPKAPK5 (PRAK); 1 h, log[inhibitor] (M) -5.00, ZLYTE, ATP Km app",95%
same,inhibition at 3.31 µM,"MAPKAPK5 (PRAK); 1 h, log[inhibitor] (M) -5.48, ZLYTE, ATP Km app",94%
same,inhibition at 1.12 µM,"MAPKAPK5 (PRAK); 1 h, log[inhibitor] (M) -5.95, ZLYTE, ATP Km app",76%
same,inhibition at 0.372 µM,"MAPKAPK5 (PRAK); 1 h, log[inhibitor] (M) -6.43, ZLYTE, ATP Km app",36%
same,inhibition at 0.04074 µM,"MAPKAPK5 (PRAK); 1 h, log[inhibitor] (M) -7.39, ZLYTE, ATP Km app",13%
same,inhibition at 0.004571 µM,"MAPKAPK5 (PRAK); 1 h, log[inhibitor] (M) -[…], ZLYTE, ATP Km app",4%
same,Apparent fold selectivity,MAPKAPK5 (PRAK); IC50 on that kinase divided by IC50 on FES^S700C,112 fold
same,Inhibition at 1 µM (%),"MAPKAPK5 (PRAK); MAPKAPK5 (PRAK), 1 µM, ZLYTE, ATP Km app, listed as WEL028, 1 µM",70%
same,inhibition at 1 µM,"MAPKAPK5 (PRAK); read-out: Inhibition at 1 µM (%), MAPKAPK5 (PRAK), 1 µM, ZLYTE, ATP Km app",62%
same,inhibition at 1 µM,PDGFRB (PDGFR beta); [1],22%
same,Inhibition at 1 µM (%),"PDGFRB (PDGFR beta); PDGFRB (PDGFR beta), 1 µM, ZLYTE, ATP Km app, listed as WEL028, 1 µM",23%
same,inhibition at 1 µM,"PDGFRB (PDGFR beta); read-out: Inhibition at 1 µM (%), PDGFRB (PDGFR beta), 1 µM, ZLYTE, ATP Km app",21%
same,Inhibition at 1 µM (%),"VRK2; 1 µM, LanthaScreen Binding, listed as WEL028, 1 µM",19%
same,inhibition at 1 µM,VRK2; [1],16%
same,inhibition at 1 µM,"VRK2; read-out: Inhibition at 1 µM (%), 1 µM, LanthaScreen Binding",14%
